Literature values, collected in patent US8728489B2, “Immunotherapy for chronic hepatitis C virus infection” (priority 2008, dated 2014).

Tests used:
[1] = in vivo

Compound: NC(=O)c1ncn([C@@H]2O[C@H](CO)[C@@H](O)[C@H]2O)n1 [Ribavirin, 1-(beta)-D-ribofuranosyl-1H-1,2,4-triazole-3-carboxamide]
- solubility in anhydrous alcohol: slightly soluble
- solubility in water: freely soluble
- patients with hemolytic anemia [1]: 20-30%
